Experimental data as given in patent US20090060851A1, “USE OF IDEBENONE FOR THE PREPARATION OF A TOPICALLY-APPLIED DEPIGMENTATION COMPOSITION AND CORRESPONDING COMPOSITION” (priority 2005, published 2009).

Experiments:
SK-MEL-28 [1] = assay: Dopaquinone content determination (OD475) in SK-MEL cells; assay type: cell-based, human
Description: (§1) In vitro determinations were performed following the method devised by Dooley et al. (Skin Pharmacol. 1994; 7:188-200) in order to evaluate the capacity of idebenone to inhibit melanogenesis, according to the process described below:
(§2) Cells: The study was carried out using a cell line derived from human melanoma, provided by ABAC (Asociación Banco Argentino de Células—Cell Bank of Argentina), with melanin synthesis capability (SK-MEL-28, ATCC origin). The cells were grown in plastic culture bottles or in 24-well plastic dishes in a modified Eagle medium (DMEM) supplemented with 10% fetal bovine serum (FBS) and were maintained at 37° C. in a 5% CO2 atmosphere.
(§3) Study of in vitro compounds: SK-MEL cells detached with trypsin were seeded on plastic 24-well dishes (density of 1×10^5 cells per well) and incubated for 24 hours in modified Eagle medium (DMEM) supplemented with 10% fetal bovine serum (FBS) prior to treating with the compound to be evaluated. After 24 hours have lapsed, the medium was replaced with 990 μl of fresh medium. 10 μl of sterile vehicle (50% propylene glycol, 30% ethanol and 20% distilled water) containing different concentrations of the compounds to be evaluated were added to this fresh medium.
(§4) Decimal dilutions of each compound in the sterile vehicle were prepared in order to obtain final concentrations of the compound to be studied ranging between 1.000 and 0.01 μg/ml. […]
[…] […] All the concentrations of the compounds were studied in triplicate, comparing the mean of the 3 wells treated with the compounds with those treated with the vehicle alone.
(§5) Melanin content determination: The SK-MEL cell melanin content was determined after stirring the culture medium and washing the cells with PBS. The cells were then lysated by means of adding 1 ml of 1N NaOH to each well and repeated manual pipetting. The raw cell extract was analyzed using a spectrophotometer at 400 and 475 nm to determine the melanin and dopaquinone content, respectively. The results were expressed as a percentage of the cell cultures treated with the vehicle.

SK-MEL-28 [2] = assay: Melanin content determination (OD400) in SK-MEL cells; assay type: cell-based, human
Description: as §1, §2, §3, §4
[…] The cells were thus continuously exposed to the compounds under study for the 5 days the culture lasted. All the concentrations of the compounds were studied in triplicate, comparing the mean of the 3 wells treated with the compounds with those treated with the vehicle alone.
as §5

[3] = Example 9 (similar to Example 6), dilution −2
[4] = Example 9 (similar to Example 6), dilution −3
[5] = Example 9 (similar to Example 6), dilution −4
[6] = Example 9 (similar to Example 6), dilution −5
[7] = Example 9 (similar to Example 6), dilution −6
[8] = Example 9 (similar to Example 6), dilution −7
[9] = Example 9 (similar to Example 6), dilution −8
[10] = dilution −1, treated daily 3 days, assayed day 5
[11] = dilution −2, treated 1 day, evaluated third day
[12] = dilution −2, treated daily 3 days, assayed day 5
[13] = dilution −3, treated 1 day, evaluated third day
[14] = dilution −3, treated daily 3 days, assayed day 5
[15] = dilution −4, treated 1 day, evaluated third day
[16] = dilution −4, treated 2 days, evaluated fourth day
[17] = dilution −4, treated daily 3 days, assayed day 5
[18] = dilution −4, treated for 5 days (heading: 3 days), evaluated fifth day
[19] = dilution −5, treated 1 day, evaluated third day
[20] = dilution −5, treated 2 days, evaluated fourth day
[21] = dilution −5, treated daily 3 days, assayed day 5
[22] = dilution −5, treated for 5 days (heading: 3 days), evaluated fifth day
[23] = dilution −6, treated 1 day, evaluated third day
[24] = dilution −6, treated 2 days, evaluated fourth day
[25] = dilution −6, treated for 5 days (heading: 3 days), evaluated fifth day

COC1=C(OC)C(=O)C(CCCCCCCCCCO)=C(C)C1=O [idebenone, 6-(10-hydroxydecyl)-2,3-dimethoxy-5-methyl-1,4-benzoquinone]
OD475 (dopaquinone) (SK-MEL-28 [1]; [3]): 0.0024 | OD475 Percentage (dopaquinone) (SK-MEL-28 [1]; [3]): 14.45% | OD475 (dopaquinone) (SK-MEL-28 [1]; [4]): 0.0038 | OD475 Percentage (dopaquinone) (SK-MEL-28 [1]; [4]): 22.89% | OD475 (dopaquinone) (SK-MEL-28 [1]; [5]): 0.0133 | OD475 Percentage (dopaquinone) (SK-MEL-28 [1]; [5]): 80.12% | OD475 (dopaquinone) (SK-MEL-28 [1]; [6]): 0.0139 | OD475 Percentage (dopaquinone) (SK-MEL-28 [1]; [6]): 83.73% | OD475 (dopaquinone) (SK-MEL-28 [1]; [7]): 0.0116 | OD475 Percentage (dopaquinone) (SK-MEL-28 [1]; [7]): 69.87% | OD475 (dopaquinone) (SK-MEL-28 [1]; [8]): 0.0139 | OD475 Percentage (dopaquinone) (SK-MEL-28 [1]; [8]): 83.73% | OD475 (dopaquinone) (SK-MEL-28 [1]; [9]): 0.0133 | OD475 Percentage (dopaquinone) (SK-MEL-28 [1]; [9]): 80.12% | OD475 (dopaquinone) (SK-MEL-28 [1]; [10]): 0.0011 | OD475 expressed as percentage of control (dopaquinone) (SK-MEL-28 [1]; [10]): 9% | OD475 (dopaquinone) (SK-MEL-28 [1]; [11]): 0.0030 | OD475 Percentage (dopaquinone) (SK-MEL-28 [1]; [11]): 18.75% | OD475 (dopaquinone) (SK-MEL-28 [1]; [12]): 0.0016 | OD475 expressed as percentage of control (dopaquinone) (SK-MEL-28 [1]; [12]): 14% | OD475 (dopaquinone) (SK-MEL-28 [1]; [13]): 0.0050 | OD475 Percentage (dopaquinone) (SK-MEL-28 [1]; [13]): 31.25% | OD475 (dopaquinone) (SK-MEL-28 [1]; [14]): 0.0043 | OD475 expressed as percentage of control (dopaquinone) (SK-MEL-28 [1]; [14]): 37% | OD475 (dopaquinone) (SK-MEL-28 [1]; [15]): 0.0123 | OD475 Percentage (dopaquinone) (SK-MEL-28 [1]; [15]): 76.87% | OD475 (dopaquinone) (SK-MEL-28 [1]; [16]): 0.0400 | OD475 Percentage (dopaquinone) (SK-MEL-28 [1]; [16]): 103.62% | OD475 (dopaquinone) (SK-MEL-28 [1]; [17]): 0.0053 | OD475 expressed as percentage of control (dopaquinone) (SK-MEL-28 [1]; [17]): 46% | OD475 (dopaquinone) (SK-MEL-28 [1]; [18]): 0.0513 | OD475 Percentage (dopaquinone) (SK-MEL-28 [1]; [18]): 80.66% | OD475 (dopaquinone) (SK-MEL-28 [1]; [19]): 0.0196 | OD475 Percentage (dopaquinone) (SK-MEL-28 [1]; [19]): 122.5% | OD475 (dopaquinone) (SK-MEL-28 [1]; [20]): 0.0406 | OD475 Percentage (dopaquinone) (SK-MEL-28 [1]; [20]): 105.18% | OD475 (dopaquinone) (SK-MEL-28 [1]; [21]): 0.0040 | OD475 expressed as percentage of control (dopaquinone) (SK-MEL-28 [1]; [21]): 35% | OD475 (dopaquinone) (SK-MEL-28 [1]; [22]): 0.0612 | OD475 Percentage (dopaquinone) (SK-MEL-28 [1]; [22]): 96.22% | OD475 (dopaquinone) (SK-MEL-28 [1]; [23]): 0.0200 | OD475 Percentage (dopaquinone) (SK-MEL-28 [1]; [23]): 125.0% | OD475 (dopaquinone) (SK-MEL-28 [1]; [24]): 0.0273 | OD475 Percentage (dopaquinone) (SK-MEL-28 [1]; [24]): 70.72% | OD475 (dopaquinone) (SK-MEL-28 [1]; [25]): 0.0643 | OD475 Percentage (dopaquinone) (SK-MEL-28 [1]; [25]): 101.10% | OD400 (melanin) (SK-MEL-28 [2]; [3]): 0.01166 | OD400 Percentage (melanin) (SK-MEL-28 [2]; [3]): 71.40% | OD400 (melanin) (SK-MEL-28 [2]; [4]): 0.01566 | OD400 Percentage (melanin) (SK-MEL-28 [2]; [4]): 95.89% | OD400 (melanin) (SK-MEL-28 [2]; [5]): 0.01533 | OD400 Percentage (melanin) (SK-MEL-28 [2]; [5]): 93.87% | OD400 (melanin) (SK-MEL-28 [2]; [6]): 0.01466 | OD400 Percentage (melanin) (SK-MEL-28 [2]; [6]): 89.77% | OD400 (melanin) (SK-MEL-28 [2]; [7]): 0.009 | OD400 Percentage (melanin) (SK-MEL-28 [2]; [7]): 55.11% | OD400 (melanin) (SK-MEL-28 [2]; [8]): 0.01166 | OD400 Percentage (melanin) (SK-MEL-28 [2]; [8]): 71.40% | OD400 (melanin) (SK-MEL-28 [2]; [9]): 0.01166 | OD400 Percentage (melanin) (SK-MEL-28 [2]; [9]): 71.40% | Melanin synthesis inhibition (SK-MEL-28 [2]; SK-MEL-28, Example 5): inhibits melanin synthesis in a dose-dependent manner | OD400 (melanin) (SK-MEL-28 [2]; [10]): 0.0156 | OD400 expressed as percentage of control (melanin) (SK-MEL-28 [2]; [10]): 28% | OD400 (melanin) (SK-MEL-28 [2]; [11]): 0.0040 | OD400 Percentage (melanin) (SK-MEL-28 [2]; [11]): 14.65% | OD400 (melanin) (SK-MEL-28 [2]; [12]): 0.0140 | OD400 expressed as percentage of control (melanin) (SK-MEL-28 [2]; [12]): 40% | OD400 (melanin) (SK-MEL-28 [2]; [13]): 0.0133 | OD400 Percentage (melanin) (SK-MEL-28 [2]; [13]): 48.72% | OD400 (melanin) (SK-MEL-28 [2]; [14]): 0.0123 | OD400 expressed as percentage of control (melanin) (SK-MEL-28 [2]; [14]): 52% | OD400 (melanin) (SK-MEL-28 [2]; [15]): 0.0243 | OD400 Percentage (melanin) (SK-MEL-28 [2]; [15]): 89.01% | OD400 (melanin) (SK-MEL-28 [2]; [16]): 0.0613 | OD400 Percentage (melanin) (SK-MEL-28 [2]; [16]): 112.89% | OD400 (melanin) (SK-MEL-28 [2]; [17]): 0.0096 | OD400 expressed as percentage of control (melanin) (SK-MEL-28 [2]; [17]): 59% | OD400 (melanin) (SK-MEL-28 [2]; dilution −4, treated for 3 days, evaluated fifth day): 0.0686 | OD400 Percentage (melanin) (SK-MEL-28 [2]; [18]): 77.69% | OD400 (melanin) (SK-MEL-28 [2]; [19]): 0.0343 | OD400 Percentage (melanin) (SK-MEL-28 [2]; [19]): 125.64% | OD400 (melanin) (SK-MEL-28 [2]; [20]): 0.0626 | OD400 Percentage (melanin) (SK-MEL-28 [2]; [20]): 115.28% | OD400 (melanin) (SK-MEL-28 [2]; [21]): 0.0066 | OD400 expressed as percentage of control (melanin) (SK-MEL-28 [2]; [21]): 66% | OD400 (melanin) (SK-MEL-28 [2]; dilution −5, treated for 3 days, evaluated fifth day): 0.0742 | OD400 Percentage (melanin) (SK-MEL-28 [2]; [22]): 84.03% | OD400 (melanin) (SK-MEL-28 [2]; [23]): 0.0313 | OD400 Percentage (melanin) (SK-MEL-28 [2]; [23]): 114.65% | OD400 (melanin) (SK-MEL-28 [2]; [24]): 0.0396 | OD400 Percentage (melanin) (SK-MEL-28 [2]; [24]): 72.92% | OD400 (melanin) (SK-MEL-28 [2]; dilution −6, treated for 3 days, evaluated fifth day): 0.0801 | OD400 Percentage (melanin) (SK-MEL-28 [2]; [25]): 90.71% | Melanogenesis inhibition at high dilutions (SK-MEL-28 [2]; −2 to −8 dilutions): preserves its ability to inhibit melanogenesis
